Experimental data reported in article PMC9288506, “Compounds activating VCP D1 ATPase enhance both autophagic and proteasomal neurotoxic protein clearance” (Nature Communications, 2022).

Columns and labels:
Test in all cases: biochemical
Design in all cases: Thermo Fisher in vitro kinase panel, per cent inhibition of kinase activity at 10 uM
[1] = molecular target: PTK6 (Brk) (Homo sapiens, UniProt Q13882)
Method: (§1) Kinase profiling of SMER28 and analogs SMER28 and analogs were tested at 10 µM in a panel of 123 kinases at ThermoFisher Scientific. Follow-up of selected kinases for SMER28 and analogs was also performed at ThermoFisher Scientific. Data are shown in Supplementary Data 2 and 3. […] An inhibition of PIK3C could induce autophagy, mediated by signaling through the AKT/mTOR axis[45].

[2] = molecular target: RET V804L (Homo sapiens, UniProt P07949, V804L)
Method: as §1

[3] = molecular target: FLT3 (Homo sapiens, UniProt P36888)
Method: as §1

[4] = molecular target: SGK (SGK1) (Homo sapiens, UniProt O00141)
Method: as §1

[5] = molecular target: BRAF (Homo sapiens, UniProt P15056)
Method: as §1

[6] = molecular target: MAP2K1 (MEK1) (Homo sapiens, UniProt Q02750)
Method: as §1

[7] = molecular target: PIK3C3 (hVPS34) (Homo sapiens, UniProt Q8NEB9)
Method: as §1

[8] = molecular target: CDK9/cyclin T1 (Homo sapiens, UniProt P50750)
Method: as §1

[9] = molecular target: PDGFRB (PDGFR beta) (Homo sapiens, UniProt P09619)
Method: as §1

[10] = molecular target: CDK2/cyclin A (Homo sapiens, UniProt P24941)
Method: as §1

[11] = molecular target: NUAK1 (ARK5) (Homo sapiens, UniProt O60285)
Method: as §1

[12] = molecular target: ROS1 (Homo sapiens, UniProt P08922)
Method: as §1

[13] = molecular target: SYK (Homo sapiens, UniProt P43405)
Method: as §1

[14] = molecular target: FES (FPS) (Homo sapiens, UniProt P07332)
Method: as §1

[15] = molecular target: AXL (Homo sapiens, UniProt P30530)
Method: as §1

[16] = molecular target: AKT2 (PKB beta) (Homo sapiens, UniProt P31751)
Method: as §1

[17] = molecular target: EEF2K (Homo sapiens, UniProt O00418)
Method: as §1

[18] = molecular target: TYRO3 (RSE) (Homo sapiens, UniProt Q06418)
Method: as §1

[19] = molecular target: RET V804M (Homo sapiens, UniProt P07949, V804M)
Method: as §1

[20] = molecular target: IKBKB (IKK beta) (Homo sapiens, UniProt O14920)
Method: as §1

[21] = molecular target: AURKC (Aurora C) (Homo sapiens, UniProt Q9UQB9)
Method: as §1

[22] = molecular target: T1, PDK1 (Homo sapiens, UniProt O15530)
T1 construct: gene PDPK1
Method: as §1

[23] = molecular target: PTK2 (FAK) (Homo sapiens, UniProt Q05397)
Method: as §1

[24] = molecular target: ROCK2 (Homo sapiens, UniProt O75116)
Method: as §1

[25] = molecular target: ALK (Homo sapiens, UniProt Q9UM73)
Method: as §1

ALK, sequence (Q9UM73 whole entry): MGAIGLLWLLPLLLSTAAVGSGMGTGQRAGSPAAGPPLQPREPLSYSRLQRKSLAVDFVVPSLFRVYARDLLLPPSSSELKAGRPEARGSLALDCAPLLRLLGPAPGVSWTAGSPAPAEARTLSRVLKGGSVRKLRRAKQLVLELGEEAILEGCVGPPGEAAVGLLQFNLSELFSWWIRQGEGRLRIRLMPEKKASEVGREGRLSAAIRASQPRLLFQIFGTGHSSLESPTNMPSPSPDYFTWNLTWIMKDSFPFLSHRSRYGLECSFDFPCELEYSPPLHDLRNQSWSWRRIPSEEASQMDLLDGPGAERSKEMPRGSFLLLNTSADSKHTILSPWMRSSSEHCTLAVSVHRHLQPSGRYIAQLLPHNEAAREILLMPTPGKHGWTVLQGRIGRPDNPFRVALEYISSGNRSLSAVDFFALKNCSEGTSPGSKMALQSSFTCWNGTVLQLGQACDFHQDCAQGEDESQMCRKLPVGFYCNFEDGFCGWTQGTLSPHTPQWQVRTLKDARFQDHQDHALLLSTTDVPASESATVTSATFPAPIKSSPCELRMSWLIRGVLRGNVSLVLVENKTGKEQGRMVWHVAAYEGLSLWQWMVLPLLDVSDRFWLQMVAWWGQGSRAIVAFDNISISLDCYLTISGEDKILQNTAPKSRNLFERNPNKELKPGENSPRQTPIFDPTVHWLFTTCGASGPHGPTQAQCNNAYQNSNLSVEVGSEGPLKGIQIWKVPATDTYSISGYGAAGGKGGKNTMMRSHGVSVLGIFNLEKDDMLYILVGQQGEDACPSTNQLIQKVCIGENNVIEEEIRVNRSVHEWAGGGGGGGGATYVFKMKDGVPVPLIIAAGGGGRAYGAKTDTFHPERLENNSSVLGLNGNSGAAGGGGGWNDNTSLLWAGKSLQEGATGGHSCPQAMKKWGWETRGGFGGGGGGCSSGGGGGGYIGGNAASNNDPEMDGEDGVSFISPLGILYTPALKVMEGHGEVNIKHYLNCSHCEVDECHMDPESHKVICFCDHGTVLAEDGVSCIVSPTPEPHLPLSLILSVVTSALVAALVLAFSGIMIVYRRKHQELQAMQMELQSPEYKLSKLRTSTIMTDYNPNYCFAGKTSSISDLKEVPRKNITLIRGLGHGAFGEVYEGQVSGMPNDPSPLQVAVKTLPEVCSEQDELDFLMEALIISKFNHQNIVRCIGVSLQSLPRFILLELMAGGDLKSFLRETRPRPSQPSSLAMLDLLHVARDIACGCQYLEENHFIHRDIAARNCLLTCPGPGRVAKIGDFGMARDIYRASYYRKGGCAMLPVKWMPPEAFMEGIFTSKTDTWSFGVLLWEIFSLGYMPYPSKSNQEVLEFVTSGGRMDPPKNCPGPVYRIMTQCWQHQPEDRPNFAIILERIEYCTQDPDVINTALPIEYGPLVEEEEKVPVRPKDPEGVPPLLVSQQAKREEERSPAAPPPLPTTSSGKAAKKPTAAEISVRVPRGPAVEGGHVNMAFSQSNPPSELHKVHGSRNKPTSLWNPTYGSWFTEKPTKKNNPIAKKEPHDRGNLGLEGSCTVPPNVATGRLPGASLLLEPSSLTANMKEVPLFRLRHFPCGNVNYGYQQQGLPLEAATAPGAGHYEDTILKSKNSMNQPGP
SGK (SGK1), sequence (O00141 whole entry): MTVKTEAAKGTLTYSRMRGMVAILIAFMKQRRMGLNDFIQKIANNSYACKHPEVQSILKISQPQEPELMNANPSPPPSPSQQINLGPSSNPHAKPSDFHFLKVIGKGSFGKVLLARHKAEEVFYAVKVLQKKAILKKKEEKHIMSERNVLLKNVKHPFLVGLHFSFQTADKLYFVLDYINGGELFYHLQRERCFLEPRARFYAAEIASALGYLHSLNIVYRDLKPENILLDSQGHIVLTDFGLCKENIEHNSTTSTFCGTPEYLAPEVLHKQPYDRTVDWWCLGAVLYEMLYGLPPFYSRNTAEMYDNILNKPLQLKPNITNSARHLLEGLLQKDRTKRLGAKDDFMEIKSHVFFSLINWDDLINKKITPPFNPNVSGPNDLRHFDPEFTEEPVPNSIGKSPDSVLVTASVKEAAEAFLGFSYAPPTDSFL
PTK6 (Brk), sequence (Q13882 whole entry): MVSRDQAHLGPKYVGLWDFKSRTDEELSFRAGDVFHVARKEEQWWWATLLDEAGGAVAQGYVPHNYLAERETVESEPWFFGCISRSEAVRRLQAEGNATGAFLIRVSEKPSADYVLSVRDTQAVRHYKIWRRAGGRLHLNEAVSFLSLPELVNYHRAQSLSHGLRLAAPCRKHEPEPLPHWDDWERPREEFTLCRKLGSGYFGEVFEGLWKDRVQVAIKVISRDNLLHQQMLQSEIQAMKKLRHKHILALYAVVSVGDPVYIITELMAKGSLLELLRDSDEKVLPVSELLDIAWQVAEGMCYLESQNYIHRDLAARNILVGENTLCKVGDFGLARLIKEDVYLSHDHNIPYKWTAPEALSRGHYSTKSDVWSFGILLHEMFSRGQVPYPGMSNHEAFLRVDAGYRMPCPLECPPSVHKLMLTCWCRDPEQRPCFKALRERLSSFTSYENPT
MAP2K1 (MEK1), sequence (Q02750 whole entry): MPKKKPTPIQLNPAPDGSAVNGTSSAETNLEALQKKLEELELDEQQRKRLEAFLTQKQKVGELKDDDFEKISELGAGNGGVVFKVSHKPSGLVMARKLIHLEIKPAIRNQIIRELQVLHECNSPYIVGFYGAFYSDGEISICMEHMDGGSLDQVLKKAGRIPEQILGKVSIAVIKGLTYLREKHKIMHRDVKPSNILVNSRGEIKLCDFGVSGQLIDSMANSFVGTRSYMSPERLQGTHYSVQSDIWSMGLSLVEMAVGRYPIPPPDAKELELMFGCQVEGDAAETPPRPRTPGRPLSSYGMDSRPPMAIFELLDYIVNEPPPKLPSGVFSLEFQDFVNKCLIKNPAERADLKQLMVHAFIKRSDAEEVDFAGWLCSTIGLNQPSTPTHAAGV
NUAK1 (ARK5), sequence (O60285 whole entry): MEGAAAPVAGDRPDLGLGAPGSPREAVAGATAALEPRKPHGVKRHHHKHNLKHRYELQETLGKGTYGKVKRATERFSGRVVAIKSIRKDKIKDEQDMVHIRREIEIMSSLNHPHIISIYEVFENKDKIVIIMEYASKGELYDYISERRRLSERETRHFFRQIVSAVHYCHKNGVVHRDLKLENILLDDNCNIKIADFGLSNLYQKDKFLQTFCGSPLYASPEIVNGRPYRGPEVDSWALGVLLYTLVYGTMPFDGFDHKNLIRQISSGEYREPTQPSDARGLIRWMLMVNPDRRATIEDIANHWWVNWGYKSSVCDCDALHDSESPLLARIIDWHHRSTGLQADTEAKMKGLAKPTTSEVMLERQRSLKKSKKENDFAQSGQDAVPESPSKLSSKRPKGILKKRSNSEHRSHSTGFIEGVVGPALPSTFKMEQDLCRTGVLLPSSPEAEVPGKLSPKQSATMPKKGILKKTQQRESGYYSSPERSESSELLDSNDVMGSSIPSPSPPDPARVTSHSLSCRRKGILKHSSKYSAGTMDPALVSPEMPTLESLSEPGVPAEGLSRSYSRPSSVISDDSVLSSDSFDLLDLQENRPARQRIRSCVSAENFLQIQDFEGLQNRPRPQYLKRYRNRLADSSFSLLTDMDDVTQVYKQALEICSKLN
BRAF, sequence (P15056 whole entry): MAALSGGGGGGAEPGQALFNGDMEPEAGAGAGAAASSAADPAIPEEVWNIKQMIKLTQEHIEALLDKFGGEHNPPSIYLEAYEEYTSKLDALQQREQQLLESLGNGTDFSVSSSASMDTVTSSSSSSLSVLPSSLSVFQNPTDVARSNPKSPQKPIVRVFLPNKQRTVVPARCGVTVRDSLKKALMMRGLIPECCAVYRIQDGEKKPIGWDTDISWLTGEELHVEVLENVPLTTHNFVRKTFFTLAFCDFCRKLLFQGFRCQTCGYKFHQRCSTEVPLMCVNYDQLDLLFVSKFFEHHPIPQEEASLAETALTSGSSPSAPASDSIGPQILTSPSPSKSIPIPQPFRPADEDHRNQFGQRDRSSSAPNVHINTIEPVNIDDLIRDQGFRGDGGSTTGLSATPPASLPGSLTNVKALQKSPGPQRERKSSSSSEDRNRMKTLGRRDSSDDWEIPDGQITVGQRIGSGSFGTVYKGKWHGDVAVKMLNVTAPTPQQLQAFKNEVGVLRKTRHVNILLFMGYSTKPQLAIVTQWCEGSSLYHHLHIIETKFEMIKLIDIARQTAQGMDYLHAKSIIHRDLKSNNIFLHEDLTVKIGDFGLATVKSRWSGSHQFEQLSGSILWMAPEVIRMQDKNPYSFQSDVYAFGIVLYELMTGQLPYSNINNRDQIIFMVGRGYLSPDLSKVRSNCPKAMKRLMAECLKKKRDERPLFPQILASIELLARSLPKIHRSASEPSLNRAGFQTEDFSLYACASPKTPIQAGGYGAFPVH
EEF2K, sequence (O00418 whole entry): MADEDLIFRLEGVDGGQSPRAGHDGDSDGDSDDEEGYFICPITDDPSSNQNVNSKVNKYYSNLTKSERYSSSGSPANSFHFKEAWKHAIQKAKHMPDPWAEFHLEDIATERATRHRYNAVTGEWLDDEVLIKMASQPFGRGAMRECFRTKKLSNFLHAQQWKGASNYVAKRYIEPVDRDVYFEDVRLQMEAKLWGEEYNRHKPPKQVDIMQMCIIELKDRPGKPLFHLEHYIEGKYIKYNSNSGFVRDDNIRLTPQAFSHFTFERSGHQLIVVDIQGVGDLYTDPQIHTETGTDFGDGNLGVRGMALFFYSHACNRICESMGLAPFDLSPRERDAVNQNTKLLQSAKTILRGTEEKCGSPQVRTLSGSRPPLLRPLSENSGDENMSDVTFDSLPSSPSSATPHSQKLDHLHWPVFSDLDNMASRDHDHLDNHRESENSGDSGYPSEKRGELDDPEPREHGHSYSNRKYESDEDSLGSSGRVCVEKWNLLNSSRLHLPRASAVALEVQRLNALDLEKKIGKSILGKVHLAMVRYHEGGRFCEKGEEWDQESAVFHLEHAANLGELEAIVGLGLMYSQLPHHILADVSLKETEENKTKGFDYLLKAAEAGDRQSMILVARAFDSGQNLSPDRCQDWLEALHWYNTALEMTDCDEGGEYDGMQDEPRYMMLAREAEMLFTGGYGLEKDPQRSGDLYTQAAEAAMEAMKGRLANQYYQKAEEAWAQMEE

Q: Which results are given for C=CCNc1ncnc2ccc(Br)cc12 [SMER28]?
A: inhibition at 10 µM [1]: 0%; inhibition at 10 µM [2]: 30%; inhibition at 10 µM [3]: 40%; inhibition at 10 µM [4]: 15%; inhibition at 10 µM [5]: 13%; inhibition at 10 µM [6]: 3%; inhibition at 10 µM [7]: 12%; inhibition at 10 µM [8]: 40%; inhibition at 10 µM [9]: 8%; inhibition at 10 µM [10]: 15%; inhibition at 10 µM [11]: 40%; inhibition at 10 µM [12]: 26%; inhibition at 10 µM [13]: 8%; inhibition at 10 µM [14]: 8%; inhibition at 10 µM [15]: 17%; inhibition at 10 µM [16]: -8%; inhibition at 10 µM [17]: 2%; inhibition at 10 µM [18]: 11%; inhibition at 10 µM [19]: 38%; inhibition at 10 µM [20]: 17%; inhibition at 10 µM [21]: -6%; inhibition at 10 µM [22]: -7%; inhibition at 10 µM [23]: 8%; inhibition at 10 µM [24]: -5%; inhibition at 10 µM [25]: 25%
